Reference: patent US20130224300A1, “COMPOSITIONS AND METHODS THEREOF FOR ORAL ADMINISTRATION OF DRUGS” (priority 2011, published 2013)

Assay: Sumatriptan pharmacokinetics after oral gavage in cocoa butter with or without DDM
Assay type: in vivo, beagle dogs
Settings: 25 mg in cocoa butter with 1% DDM vs no-DDM control, dog, 0-180 min
Description: The plot depicts serum concentrations of sumatriptan in a canine at zero through 180 min. following oral delivery (by gavage) of 25 mg sumatriptan in 1.0% DDM in a non-aqueous solution comprising cocoa butter. The solid circles represent plasma sumatriptan concentrations for doses not containing DDM (the control) and the solid squares show plasma sumatriptan concentrations for the sumatriptan doses containing DDM.
Sumatriptan, 2.5 g, was dissolved in 100 mL of cocoa butter at 45 deg. […] (in the liquid state) resulting in a solution having a sumatriptan concentration of 25 mg/mL. The solution was divided into two equal 50 mL portions. To one was added 500 mg DDM. Both solutions were kept at 45 degrees C. until the DDM is seen to have completely dissolved upon visual inspection yielding a 1% DDM solution in cocoa butter. The solutions were then cooled to about 4-10 degrees C. to allow the cocoa butter to solidify. One mL portions of the solidified cocoa butter-sumatriptan-DDM solution and one mL portions of the cocoa butter-sumatriptan (no DDM) control were formed into spherical balls and administered to beagle dogs by oral gavage. Blood samples were collected at timed intervals and plasma sumatriptan concentrations measured using a standard clinical assay.

increase in oral absorption based upon the relative AUC's: ~19%
Structure (SMILES): CNS(=O)(=O)Cc1ccc2[nH]cc(CCN(C)C)c2c1 [sumatriptan]
